Test results taken from ChEMBL document CHEMBL1177848, “Synthesis of novel 6,6a,7,8-tetrahydro-5H-naphtho[1,2-e]pyrimido[4,5-b][1,4]diazepines under microwave irradiation as potential anti-tumor agents” (2010).
Active and inactive are the calls of the source. The calls are words filed in the database; no cut-off is given here.

What was measured:
[1] = tested on: NCI-H23; assay: Growth inhibition of human NCI-H23 cells after 48 hrs by sulforhodamine B assay; type: functional; settings: NCI-H23, 48 h
[2] = tested on: NCI-H522; assay: Growth inhibition of human NCI-H522 cells after 48 hrs by sulforhodamine B assay; type: functional; settings: NCI-H522, 48 h
[3] = tested on: SF-295; assay: Growth inhibition of human SF295 cells after 48 hrs by sulforhodamine B assay; type: functional; settings: SF-295, 48 h
[4] = tested on: LOX IMVI; assay: Growth inhibition of human LOXIMVI cells after 48 hrs by sulforhodamine B assay; type: functional
[5] = tested on: Malme-3M; assay: Growth inhibition of human MALME-3M cells after 48 hrs by sulforhodamine B assay; type: functional
[6] = tested on: MDA-MB-435; assay: Growth inhibition of human MDA-MB-435 cells after 48 hrs by sulforhodamine B assay; type: functional; settings: MDA-MB-435, 48 h
[7] = tested on: SK-MEL-5; assay: Growth inhibition of human SK-MEL-5 cells after 48 hrs by sulforhodamine B assay; type: functional; settings: SK-MEL-5, 48 h
[8] = tested on: UACC-257; assay: Growth inhibition of human UACC257 cells after 48 hrs by sulforhodamine B assay; type: functional; settings: UACC-257, 48 h
[9] = tested on: UACC-62; assay: Growth inhibition of human UACC62 cells after 48 hrs by sulforhodamine B assay; type: functional; settings: UACC-62, 48 h
[10] = tested on: IGROV-1; assay: Growth inhibition of human IGROV1 cells after 48 hrs by sulforhodamine B assay; type: functional; settings: IGROV-1, 48 h
[11] = tested on: OVCAR-3; assay: Growth inhibition of human OVCAR-3 cells after 48 hrs by sulforhodamine B assay; type: functional; settings: OVCAR-3, 48 h
[12] = tested on: OVCAR-4; assay: Growth inhibition of human OVCAR4 cells after 48 hrs by sulforhodamine B assay; type: functional; settings: OVCAR-4, 48 h
[13] = tested on: NCI/ADR-RES; assay: Growth inhibition of human NCI/ADR-RES cells after 48 hrs by sulforhodamine B assay; type: functional
[14] = tested on: A498; assay: Growth inhibition of human A498 cells after 48 hrs by sulforhodamine B assay; type: functional; settings: A498, 48 h
[15] = tested on: CAKI-1; assay: Growth inhibition of human Caki1 cells after 48 hrs by sulforhodamine B assay; type: functional; settings: CAKI-1, 48 h
[16] = tested on: RXF 393; assay: Growth inhibition of human RXF393 cells after 48 hrs by sulforhodamine B assay; type: functional; settings: RXF 393, 48 h
[17] = tested on: SN12C; assay: Growth inhibition of human SN12C cells after 48 hrs by sulforhodamine B assay; type: functional
[18] = tested on: MDA-MB-231; assay: Growth inhibition of human MDA-MB-231 cells after 48 hrs by sulforhodamine B assay; type: functional; settings: MDA-MB-231, 48 h
[19] = tested on: T47D; assay: Growth inhibition of human T47D cells after 48 hrs by sulforhodamine B assay; type: functional
[20] = tested on: MDA-MB-468; assay: Growth inhibition of human MDA-MB-468 cells after 48 hrs by sulforhodamine B assay; type: functional; settings: MDA-MB-468, 48 h
[21] = tested on: RPMI-8226; assay: Growth inhibition of human RPMI8226 cells at 1 uM after 48 hrs by sulforhodamine B assay; type: functional, cell-based
[22] = tested on: SR; assay: Growth inhibition of human SR cells at 1 uM after 48 hrs by sulforhodamine B assay; type: functional, cell-based
[23] = tested on: K562; assay: Growth inhibition of human K562 cells at 1 uM after 48 hrs by sulforhodamine B assay; type: functional, cell-based
[24] = tested on: EKVX; assay: Growth inhibition of human EKVX cells at 1 uM after 48 hrs by sulforhodamine B assay; type: functional, cell-based
[25] = tested on: HOP-92; assay: Growth inhibition of human HOP92 cells at 1 uM after 48 hrs by sulforhodamine B assay; type: functional, cell-based
[26] = tested on: NCI-H23; assay: Growth inhibition of human NCI-H23 cells at 1 uM after 48 hrs by sulforhodamine B assay; type: functional, cell-based
[27] = tested on: NCI-H522; assay: Growth inhibition of human NCI-H522 cells at 1 uM after 48 hrs by sulforhodamine B assay; type: functional, cell-based
[28] = tested on: A549; assay: Growth inhibition of human A549 cells at 1 uM after 48 hrs by sulforhodamine B assay; type: functional, cell-based
[29] = tested on: COLO 205; assay: Growth inhibition of human COLO205 cells at 1 uM after 48 hrs by sulforhodamine B assay; type: functional, cell-based
[30] = tested on: KM12; assay: Growth inhibition of human KM12 cells at 1 uM after 48 hrs by sulforhodamine B assay; type: functional, cell-based
[31] = tested on: HCC 2998; assay: Growth inhibition of human HCC2998 cells at 1 uM after 48 hrs by sulforhodamine B assay; type: functional, cell-based
[32] = tested on: U-251; assay: Growth inhibition of human U251 cells at 1 uM after 48 hrs by sulforhodamine B assay; type: functional, cell-based
[33] = tested on: SF-268; assay: Growth inhibition of human SF268 cells at 1 uM after 48 hrs by sulforhodamine B assay; type: functional, cell-based
[34] = tested on: SNB-75; assay: Growth inhibition of human SNB75 cells at 1 uM after 48 hrs by sulforhodamine B assay; type: functional, cell-based
[35] = tested on: LOX IMVI; assay: Growth inhibition of human LOXIMVI cells at 1 uM after 48 hrs by sulforhodamine B assay; type: functional, cell-based
[36] = tested on: SK-MEL-5; assay: Growth inhibition of human SK-MEL-5 cells at 1 uM after 48 hrs by sulforhodamine B assay; type: functional, cell-based
[37] = tested on: OVCAR-3; assay: Growth inhibition of human OVCAR-3 cells at 1 uM after 48 hrs by sulforhodamine B assay; type: functional, cell-based
[38] = tested on: A498; assay: Growth inhibition of human A498 cells at 1 uM after 48 hrs by sulforhodamine B assay; type: functional, cell-based
[39] = tested on: CAKI-1; assay: Growth inhibition of human Caki1 cells at 1 uM after 48 hrs by sulforhodamine B assay; type: functional, cell-based
[40] = tested on: RXF 393; assay: Growth inhibition of human RXF393 cells at 1 uM after 48 hrs by sulforhodamine B assay; type: functional, cell-based
[41] = tested on: TK-10; assay: Growth inhibition of human TK10 cells at 1 uM after 48 hrs by sulforhodamine B assay; type: functional, cell-based
[42] = tested on: PC-3; assay: Growth inhibition of human PC3 cells at 1 uM after 48 hrs by sulforhodamine B assay; type: functional, cell-based
[43] = tested on: DU-145; assay: Growth inhibition of human DU145 cells at 1 uM after 48 hrs by sulforhodamine B assay; type: functional, cell-based
[44] = tested on: MDA-MB-231; assay: Growth inhibition of human MDA-MB-231 cells at 1 uM after 48 hrs by sulforhodamine B assay; type: functional, cell-based
[45] = tested on: MDA-MB-468; assay: Growth inhibition of human MDA-MB-468 cells at 1 uM after 48 hrs by sulforhodamine B assay; type: functional, cell-based
[46] = tested on: Hs-578T; assay: Growth inhibition of human Hs 578T cells at 1 uM after 48 hrs by sulforhodamine B assay; type: functional, cell-based
[47] = read-out: LC50 (the source's name)

Nc1nc(N)c2c(n1)NC(c1ccc(Cl)cc1)C1CCc3ccccc3C1=N2 (stereo unspecified)
GI50 [1]: 4.88 µM
LC50 [1]: 44.7 µM
GI50 [2]: 5.21 µM
LC50 [2]: 54.4 µM
GI50 [3]: 3.37 µM
LC50 (50% lethal concentration) [3]: 40.7 µM
GI50 [4]: 3.53 µM
LC50 [4]: 44.5 µM
GI50 [5]: 8.48 µM
LC50 [5]: 54 µM
GI50 [6]: 4.72 µM
LC50 (concentration killing 50% of cells) [6]: 54.1 µM
GI50 [7]: 500 nM
LC50 [7]: 6.56 µM
GI50 [8]: 7.07 µM
CC50 [8, 47]: 44.9 µM
GI50 [9]: 3.66 µM
LC50 [9]: 43.3 µM
GI50 [10]: 6.16 µM
LC50 (concentration killing 50% of cells) [10]: 49.9 µM
GI50 [11]: 6.46 µM
LC50 (lethal concentration, 50% cell kill) [11]: 43.6 µM
GI50 [12]: 6.45 µM
LC50 (50% lethal concentration) [12]: 50.9 µM
GI50 [13]: 5.53 µM
LC50 (concentration killing 50% of cells) [13]: 43.8 µM
GI50 [14]: 5.34 µM
LC50 [14]: 44.9 µM
GI50 [15]: 4.33 µM
CC50 [15, 47]: 50 µM
GI50 [16]: 4.68 µM
LC50 (50% lethal concentration) [16]: 54.4 µM
GI50 [17]: 7.68 µM
CC50 [17, 47]: 50.9 µM
GI50 [18]: 9.73 µM
CC50 [18, 47]: 47.9 µM
GI50 [19]: 4.09 µM
CC50 [19, 47]: 59.8 µM
GI50 [20]: 1600 nM
CC50 [20, 47]: 54.5 µM
growth inhibition (GI) [21]: inactive
growth inhibition (GI) [22]: inactive
growth inhibition (GI) [23]: inactive
growth inhibition (GI) [24]: inactive
growth inhibition (GI) [25]: inactive
growth inhibition (GI) [26]: inactive
growth inhibition (GI) [27]: inactive
growth inhibition (GI) [28]: inactive
growth inhibition (GI) [29]: inactive
growth inhibition (GI) [30]: inactive
growth inhibition (GI) [31]: inactive
growth inhibition (GI) [32]: inactive
growth inhibition (GI) [33]: inactive
growth inhibition (GI) [34]: inactive
growth inhibition (GI) [35]: inactive
growth inhibition (GI) [36]: inactive
growth inhibition (GI) [37]: inactive
growth inhibition (GI) [38]: inactive
growth inhibition (GI) [39]: inactive
growth inhibition (GI) [40]: inactive
growth inhibition (GI) [41]: inactive
growth inhibition (GI) [42]: inactive
growth inhibition (GI) [43]: inactive
growth inhibition (GI) [44]: inactive
growth inhibition (GI) [45]: inactive
growth inhibition (GI) [46]: inactive
